Patent publication US20220218781A1, “COMPOSITION FOR ENHANCEMENT OF BIOAVAILABILITY OF PHYTOCHEMICALS AND PROCESS FOR PREPARATION THEREOF” (OLENE LIFE SCIENCES PRIVATE LIMITED, priority 2019, published 2022)

Assay: Comparative self-dispersion study in water
Assay type: physicochemical
Conditions: without mechanical stirring, test product vs. standard unformulated reference product
Procedure: A comparative self-dispersion study was carried out between the ‘Composition of Example 1 (Test product)’ and ‘Standard unformulated lutein extract (Reference product)’.
A comparative self-dispersion study was carried out between the ‘Composition of Example 13 (Test product)’ and ‘Standard unformulated Boswellia extract (Reference product)’.
A comparative self-dispersion study was carried out between the ‘Composition of Example 16 (Test product)’ and ‘Standard unformulated Pepper extract (Reference product)’.
A comparative self dispersion study was carried out between the ‘Composition of Example 22 (Test product)’ and ‘Standard unformulated Coenzyme Q10 Extract (Reference product)’.
A comparative self dispersion study was carried out between the ‘Composition of Example 25 (Test product)’ and ‘Standard unformulated Palmitoylethanolamide (Reference product)’. The dispersion profile is given in FIG. 7A (test product) and FIG. 7B (reference product).

COC1=C(OC)C(=O)C(C/C=C(\C)CC/C=C(\C)CC/C=C(\C)CC/C=C(\C)CC/C=C(\C)CC/C=C(\C)CC/C=C(\C)CC/C=C(\C)CC/C=C(\C)CCC=C(C)C)=C(C)C1=O [Coenzyme Q10]
self-dispersion profile: non-dispersible
